Results: patent US20030078251A1, “Benzoxazepinones and their use as squalene synthase inhibitors” (priority 2000, published 2003)

How the values were obtained:
squalene synthase = target: T1, squalene synthase (Homo sapiens, UniProt P37268); assay: Squalene synthase inhibiting activity (Test Example 1); assay type: biochemical; details: enzyme solution from human hepatic cancer cell HepG2; 5 μM [1-3H] farnesyl pyrophosphate, 37° C., 45 minutes; read-out: Inhibiting activity (IC50, 10^−9M)
T1 construct: endogenous in cells; host or cells: HepG2 (human hepatic cancer cells); sediment of the 105000 x g centrifugation (microsomal fraction)
T1 sequence (P37268 1-417): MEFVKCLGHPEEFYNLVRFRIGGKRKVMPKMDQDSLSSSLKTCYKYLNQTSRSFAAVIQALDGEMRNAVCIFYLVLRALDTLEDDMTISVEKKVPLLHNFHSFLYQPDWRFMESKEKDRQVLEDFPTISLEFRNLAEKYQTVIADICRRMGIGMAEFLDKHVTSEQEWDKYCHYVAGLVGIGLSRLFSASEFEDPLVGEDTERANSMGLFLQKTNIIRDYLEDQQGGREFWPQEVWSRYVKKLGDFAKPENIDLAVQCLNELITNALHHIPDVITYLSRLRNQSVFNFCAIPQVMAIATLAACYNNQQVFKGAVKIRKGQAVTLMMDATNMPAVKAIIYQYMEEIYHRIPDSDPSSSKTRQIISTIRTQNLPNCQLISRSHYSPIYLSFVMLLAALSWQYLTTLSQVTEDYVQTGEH
Procedure: Squalene Synthase Inhibiting Activity
The squalene synthase inhibiting activity was measured using an enzyme solution obtained according to a preparing method described below as follows:
That is, an enzyme solution (protein 0.8 μg) prepared according to the following preparing method was added to a solution containing 5 μM [1-^3H] farnesyl pyrophosphate (specific activity […]), 1 mM NADPH (reduced type nicotinamide adenine dinucleotide phosphate), 5 mM MgCl2, 6 mM glutathione, 100 mM potassium phosphate buffer (pH 7.4) and a test drug (added as an aqueous solution or DMSO solution)(total amount 50 μl), which was reacted at 37° C. for 45 minutes. 150 μl of a mixed solution of chloroform and methanol (1:2) was added to stop the reaction, and 50 μl of chloroform and 50 μl of a 3N sodium hydroxide solution were added. 50 μl of the chloroform layer (lower layer) containing the reaction product, a main component of which is squalene, and 3 ml of toluene series liquid scintillator were mixed, and the radioactivity thereof was measured by a liquid scintillation counter.
The squalene synthase inhibiting activity was shown by the concentration at which 50% of the radioactivity […] into the chloroform layer (IC50, molar concentration (M)).
Preparation of Human Enzyme Solution
Human hepatic cancer cell HepG2 (about 1×10^9 cells) was grown in Dulbecco's modified Eagle medium (37° C., in the presence of 5%CO2) containing 10% bovine fetal serum, the resulting cells were suspended in 10 ml of ice-cooled buffer [100 mM potassium phosphate buffer (pH 7.4), 30 mM nicotinamide, 2.5 mM MgCl2], and ruptured by the ultrasonication (30 seconds, 2 times). The resulting sonicate was centrifuged at 10000× g for 20 minutes (4° C.). The resulting supernatant was centrifuged at 105000× g for 90 minutes (4° C.), then the sediment was suspended in an ice-cooled 100 mM potassium phosphate buffer (pH 7.4), and centrifuged again at 105000× g for 90 minutes (4° C.). This was suspended in an ice-cooled 100 mM potassium phosphate buffer (pH 7.4) (protein concentration about 4 mg/ml), which was used as an enzyme solution.

IC50 (squalene synthase) [nM] | melting point [°C] | Compound
40 | 151 to 152 | COc1cccc([C@H]2O[C@H](CC(=O)Nc3cc(CCC(=O)O)ccc3F)C(=O)N(CC(C)(C)CO)c3ccc(Cl)cc32)c1OC [Example 53, 3-[3-[[[(3R,5S)-7-chloro-5-(2,3-dimethoxyphenyl)-1-(3-hydroxy-2,2-dimethylpropyl)-2-oxo-1,2,3,5-tetrahydro-4,1-benzoxazepin-3-yl]acetyl]amino]-4-fluorophenyl]propionic Acid]
16 | 154 to 155 | COc1cccc([C@H]2O[C@H](CC(=O)Nc3cc(CCC(=O)O)ccc3C)C(=O)N(CC(C)(C)CO)c3ccc(Cl)cc32)c1OC [Example 55, 3-[3-[[(3R,5S)-7-chloro-5-(2,3-dimethoxyphenyl)-1-(3-hydroxy-2,2-dimethylpropyl)-2-oxo-1,2,3,5-tetrahydro-4,1-benzoxazepin-3-yl]acetyl]amino-4-methylphenyl]propionic Acid]
50 | 172 to 173 | COc1cccc([C@H]2O[C@H](CC(=O)Nc3cccc(CCC(=O)O)c3)C(=O)N(CC(C)(C)C)c3ccc(Cl)cc32)c1OC [Example 60, 3-[3-[[(3R,5S)-7-chloro-5-(2,3-dimethoxyphenyl)-1-neopentyl-2-oxo-1,2,3,5-tetrahydro-4,1-benzoxazepin-3-yl]acetyl]aminophenyl]propionic Acid]
21 | 129 to 132 | COc1cccc([C@H]2O[C@H](CC(=O)NCc3ccc(CC(=O)O)cc3)C(=O)N(CC(C)(C)CO)c3ccc(Cl)cc32)c1OC [Example 61, 4-[[[(3R,5S)-7-chloro-5-(2,3-dimethoxyphenyl)-1-(3-hydroxy-2,2-dimethylpropyl)-2-oxo-1,2,3,5-tetrahydro-4,1-benzoxazepin-3-yl]acetyl]aminomethyl]phenylacetic acid]
